Molecular target: T1, M17 leucyl aminopeptidase (Plasmodium falciparum (isolate 3D7), UniProt Q8IL11)
T1 sequence (Q8IL11 whole entry): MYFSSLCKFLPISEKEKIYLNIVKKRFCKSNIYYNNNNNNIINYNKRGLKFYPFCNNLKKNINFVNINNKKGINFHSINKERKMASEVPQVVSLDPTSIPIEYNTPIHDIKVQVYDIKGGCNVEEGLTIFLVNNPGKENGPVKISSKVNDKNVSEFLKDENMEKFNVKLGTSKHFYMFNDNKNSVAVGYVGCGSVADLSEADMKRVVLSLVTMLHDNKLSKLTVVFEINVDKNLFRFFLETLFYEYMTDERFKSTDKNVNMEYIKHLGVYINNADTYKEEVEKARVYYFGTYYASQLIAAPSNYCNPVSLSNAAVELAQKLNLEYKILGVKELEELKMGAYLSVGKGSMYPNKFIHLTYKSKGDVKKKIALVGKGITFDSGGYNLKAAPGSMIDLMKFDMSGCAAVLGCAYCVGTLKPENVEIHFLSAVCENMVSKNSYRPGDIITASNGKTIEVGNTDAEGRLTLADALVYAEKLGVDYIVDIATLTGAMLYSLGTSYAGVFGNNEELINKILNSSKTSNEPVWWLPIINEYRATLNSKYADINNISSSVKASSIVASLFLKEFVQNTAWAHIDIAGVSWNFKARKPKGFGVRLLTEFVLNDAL
Test: P. falciparum M17LAP inhibitors, primary screen, biochemical, fluorogenic H-Leu-NHMec substrate, 1536-well (AID 1619)

IC50 [µM] | SMILES
23.5 | COc1cccc(C=NNC(=O)Cc2c(C)[nH][nH]c2=O)c1OC [SMR000147373]
21.3 | CCOC(=O)C1C(=O)C(=Cc2ccc(OCC(=O)O)c(OCC)c2)SC1=Nc1ccc(OC)cc1 (stereo unspecified) [MLS000704394]
30.8 | CC(CCC1CC(C)OC1=O)N=Nc1nc(-c2ccccc2)cs1 (stereo unspecified) [SMR000204131]
11.1 | CCOc1ccc(-n2c(O)cc(Sc3nnc(-c4ccccc4)[nH]3)c2O)cc1 [MLS000765380]
76.8 | COc1cccc(-c2n[nH]c3c2C(c2ccoc2)C(C#N)C(=N)O3)c1 (stereo unspecified) [MLS000558215]
12.3 | CC(=NNC(=O)Cc1c(C)[nH][nH]c1=O)c1ccco1 [MLS000723689]
3.65 | Cc1ccc(-c2n[nH]c3c2C(c2ccoc2)C(C#N)C(=N)O3)cc1C (stereo unspecified) [SMR000078160]
49.6 | Cc1ccc(S(=O)(=O)Oc2cccc(-n3c(O)c4c(c3O)CC=CC4)c2)cc1 [SMR000197106]
60.4 | N#CC1C(=N)Oc2[nH]nc(-c3ccccc3)c2C1c1cccnc1 (stereo unspecified) [MLS000030179]
33.7 | CC(C)CC1c2c(-c3ccccc3)n[nH]c2OC(=N)C1C#N (stereo unspecified) [MLS000121961]
101 | Cc1ccc(-c2ccc([CH+][N-]Nc3nc(O)c(CC(=O)O)s3)o2)c([N+](=O)[O-])c1 [SMR000135699]
61.2 | N#CC1C(=N)Oc2[nH]nc(-c3ccc(F)cc3)c2C1c1cccnc1 (stereo unspecified) [MLS000043841]
71.6 | O=C1c2ccccc2C(=O)C1C1=NC(C(=O)O)c2c1c(O)n(-c1ccc(Cl)cc1)c2O (stereo unspecified) [MLS000331181]
9.23 | CN(C)c1ccc(/N=N/c2ccccc2C(=O)OCC(=O)N2CCCC2)cc1 [MLS000374806]

Further lines, the compound ahead of its results:

SMILES | IC50 [µM]
Cc1ccc(-c2n[nH]c3c2C(C)C(C#N)C(=N)O3)cc1 (stereo unspecified) [6-amino-4-methyl-3-(4-methylphenyl)-2,4-dihydropyrano[2,3-c]pyrazole-5-carbonitrile] | 16.3
Cc1ccc(SCc2n[nH]c3c2C2(CCSCC2)C(C#N)C(=N)O3)cc1 (stereo unspecified) [6-amino-3-[(4-methylphenyl)sulfanylmethyl]spiro[2H-pyrano[2,3-c]pyrazole-4,4'-thiane]-5-carbonitrile] | 91
CC(C)(C)OC(=O)C1=[N+]2N[CH-]c3ccccc3C2C2(C(=O)c3ccccc3C2=O)[C@H]1c1ccc([N+](=O)[O-])cc1 (stereo partly drawn) [(2R,3R)-2-(4-nitrophenyl)-1',3'-dioxo-3-spiro[3,10b-dihydro-2H-pyrrolo[2,1-a]phthalazine-1,2'-indene]carboxylic acid tert-butyl ester] | 2.23
C=c1cc2[nH]c(=O)c(=Cc3cccn3CCCOc3ccc(OC)cc3)c(=N)n2o1 | 10.9
COc1ccccc1C=CC=NNC(=O)CCc1c(C)[nH][nH]c1=O [3-(3-Methyl-5-oxo-4,5-dihydro-1H-pyrazol-4-yl)-propionic acid [(E)-3-(2-methoxy-phenyl)-prop-2-en-(E)-ylidene]-hydrazide] | 57.2
Cc1[nH][nH]c(=O)c1CCC(=O)NN=Cc1ccccc1[N+](=O)[O-] | 3.14
Cc1[nH][nH]c(=O)c1CCC(=O)NN=Cc1ccc(Cl)cc1 | 52.6
CCOC(O)c1oc2c(c(=O)c1-c1nncn1-c1ccccc1)C=CC(=O)C2=O (stereo unspecified) [ethyl 7,8-dihydroxy-4-oxo-3-(4-phenyl-4H-1,2,4-triazol-3-yl)-4H-chromene-2-carboxylate] | 6.58
COc1ccc(NC(=O)CSc2nc(C)cc(=O)[nH]2)cc1 [N-(4-methoxyphenyl)-2-[(4-methyl-6-oxo-5H-pyrimidin-2-yl)sulfanyl]acetamide] | 3.09
C/C(=C\c1ccco1)C1c2c(-c3ccccc3)n[nH]c2OC(=N)C1C#N (stereo unspecified) [6-amino-4-[(E)-1-(furan-2-yl)prop-1-en-2-yl]-3-phenyl-2,4-dihydropyrano[2,3-c]pyrazole-5-carbonitrile] | 83.7
COc1cc(CN=Nc2ccc(Cl)c(C(=O)O)c2)ccc1OC(=O)c1ccco1 [2-chloro-5-[2-[[4-[2-furanyl(oxo)methoxy]-3-methoxyphenyl]methylidene]hydrazinyl]benzoic acid] | 48.8
O=C(O)[C@H]1O[C@@H](Oc2c(-c3ccc(O)c(O)c3)oc3cc(O)cc(=O)c-3c2O)[C@H](O)[C@@H](O)[C@@H]1O [quercetin glucuronide] | 48.2
Cc1[nH][nH]c(=O)c1CCC(=O)NN=Cc1ccco1 | 69.2
Cc1[nH][nH]c(=O)c1CCC(=O)NN=Cc1ccc(Cl)c(Cl)c1 | 15
Cc1ccc(SCc2cc(=O)[nH][nH]2)cc1 [5-p-Tolylsulfanylmethyl-2,4-dihydro-pyrazol-3-one] | 1.77
O=NCc1cn(CC(=O)N2CCOCC2)c2ccccc12 [2-[3-(hydroxyiminomethyl)indol-1-yl]-1-morpholin-4-ylethanone] | 78.9
Cc1c(C)c(O)c(C=CCCC#CCCCC#CCO)c(C)c1O [docebenone] | 53.4
N#CC1C(=N)Oc2nc(-c3ccccc3)[nH]c2C1c1cccnc1 (stereo unspecified) [5-amino-2-phenyl-7-pyridin-3-yl-3,7-dihydropyrano[2,3-d]imidazole-6-carbonitrile] | 66.6
O=C1N=c2ccccc2=C1NNc1ccc(C(=O)O)cc1 [4-[2-(2-oxidanylideneindol-3-yl)hydrazinyl]benzoic acid] | 84.3
Cc1ccc(-c2n[nH]c3c2C(c2cccnc2)C(C#N)C(=N)O3)cc1 (stereo unspecified) [6-amino-3-(4-methylphenyl)-4-pyridin-3-yl-1,4-dihydropyrano[2,3-c]pyrazole-5-carbonitrile] | 25.8
CCOc1ccc(-n2c(O)cc(SCCN)c2O)cc1 [3-(2-Amino-ethylsulfanyl)-1-(4-ethoxy-phenyl)-pyrrolidine-2,5-dione] | 23.6
CC(=NNC(=O)CCc1c(C)[nH][nH]c1=O)c1ccccc1 [3-(3-methyl-5-oxidanylidene-1,4-dihydropyrazol-4-yl)-N-(1-phenylethylideneamino)propanamide] | 36.6
